Key:
[1] = system: subjects suffering from sudden sensorineural hearing loss (SSNHL); assay: Phase 2b/3 study: change in pure tone audiometry (PTA) from baseline in affected ear; assay type: in vivo, human
Method: (§1) A randomized, double-blind, placebo-controlled, parallel-group phase 2b/3 study was conducted with the aim to assess efficacy and safety of (R)-azasetron in subjects suffering from sudden sensorineural hearing loss. Treatment was administered for 4 weeks (i.e., 28 days) and the study was concluded with an 8-week follow-up at day 84.
(§2) Subjects were included in the study if they presented with sudden sensorineural hearing loss (SSNHL) and met the following criteria: • male or female, • aged at least 18 years old, • subjects with unilateral idiopathic SSNHL or unilateral/bilateral acute acoustic trauma leading to SSNHL defined by both: • at least one hearing threshold of 50 dB or more amongst the 3 most affected contiguous frequencies on pure tone audiometric air conduction testing performed 24 hours or less prior to first study drug intake, and • mean hearing loss of 30 dB or more, averaged across the 3 most affected contiguous frequencies on pure tone audiometric air conduction testing performed 24 hours or less prior to first study treatment, compared with the unaffected contralateral ear or reference values from a pre-existing audiogram (dated less than 2 years) • subjects with sudden hearing loss with onset within 96 hours prior to first study drug intake.
As indicated above, hearing loss was determined with pure tone audiometry (PTA) or pure tone audiometric testing, in particular with pure tone audiometric air conduction testing.
In the present study, pure tone air- and bone-conduction hearing thresholds were determined for each ear (best ear at first) at 0.25, 0.5, 1, 2, 3, 4, 6, and 8 kHz for air conduction and at 0.5, 1, 2, 3, 4 kHz for bone conduction, using the descending method of limits (modified Hughson Westlake procedure as follows: initial descent towards threshold is accomplished in 10-dB steps. Beginning with the first nonresponse, level is increased by 5-dB for each non-response and decreased by 10-dB after each correct detection response). The hearing threshold was defined as the lowest audible level, measured twice out of three presentations to the subject.
The baseline pure tone audiometry test was defined as the last test performed at site within 24 hours prior to the first study drug administration. The PTA was expressed as the average of the hearing threshold (in dB) of the 3 most affected contiguous test frequencies (air conduction). Therefore, a higher PTA corresponds to a higher hearing threshold and thus to a poorer hearing. Conversely, a lower PTA corresponds to a lower hearing threshold and thus to a better hearing.
The hearing loss was defined as the difference between the PTA expressed as the average of the hearing threshold (in dB) at the 3 most affected contiguous test frequencies (air pure tone average) and the corresponding PTA expressed as the average hearing threshold of the contralateral ear or values from a pre-existing audiogram (dated less than 2 years) for the same frequencies (mandatory for bilateral acute acoustic trauma). The contiguous frequencies used to determine the PTA at baseline remained fixed for all subsequent evaluations. In case of bilateral acute acoustic trauma leading to sudden sensorineural hearing loss, the most affected ear according to the inclusion criteria was considered for the analysis. If both ears were equally affected, the right ear was considered.
134 subjects were assessed for eligibility according to the criteria listed above. […]

[2] = system: subjects suffering from sudden sensorineural hearing loss (SSNHL); assay: Phase 2b/3 study: speech discrimination test, change in word recognition score (WRS) from baseline; assay type: in vivo, human; conditions: SENS-401 29 mg/BID
Method: as §1, §2
134 subjects were assessed for eligibility according to the criteria listed above. 115 subjects were randomized with a ratio 1:1:1 in the three following groups (i.e., treatment arms): • 38 subjects were included in the group administered for 28 days (i.e., 4 weeks) with placebo, • 38 subjects were included in the group administered for 28 days (i.e., 4 weeks) with a “low” dose of (R)-azasetron, defined as a total daily dose of 58 mg of (R)-azasetron (corresponding to a daily dose of 40 mg free base equivalent); and • 39 subjects were included in the group administered for 28 days (i.e., 4 weeks) with a “high” dose of (R)-azasetron, defined as a total daily dose of 87 mg of (R)-azasetron (corresponding to a daily dose of 60 mg free base equivalent).
Subjects were administered placebo or (R)-azasetron (also designated as SENS-401) for 28 days (i.e., 4 weeks). (R)-azasetron was administered orally twice a day either at a dose of 29 mg/BID (bis in die) or at a dose of 43.5 mg/BID (corresponding to a total daily dose of 40 mg and 60 mg free base equivalent, respectively).
Subjects included in the study were monitored with a first visit at day −4 to day 0 (screening), followed by a visit at day 1 (D1-randomization and inclusion day), day 7 (D7, ±2 days), day 14 (D14, ±2 days), day 28 (D28±3 days−end of treatment), and day 84 (D84±3 days-follow-up visit marking the end of study). Monitoring included audiometric tests (PTA), speech audiometry, numerical rating scales and questionnaires. Additionally, subjects included in the study were closely monitored for adverse events throughout the study.
Additionally, the efficacy of SENS-401 was also assessed by conducting speech audiometry, in particular by conducting a speech discrimination test (also known as word recognition test) to determine a word recognition score (WRS).
Speech discrimination or word recognition is the ability to repeat correctly an open set of monosyllabic words at supra threshold intensity (for example at 60 dB or at 80 dB). The word recognition score (WRS) is thus the percentage of test words correctly repeated by the subject. The test is administered in a quiet room without any competing noise. […]

[3] = day 28, SENS-401 high 43.5 mg/BID, subpopulation PTA at baseline ≥80 dB (idiopathic SSNHL, corticoids)
[4] = day 28, SENS-401 high 43.5 mg/BID, subpopulation PTA at baseline ≥90 dB (idiopathic SSNHL, corticoids)
[5] = day 28, SENS-401 low 29 mg/BID (40 mg/day free base equivalent), ITT overall study population, idiopathic SSNHL who received corticoids
[6] = day 28, SENS-401 low 29 mg/BID, subpopulation PTA at baseline ≥80 dB & initial frequency range ≤2000 Hz (idiopathic SSNHL, corticoids)
[7] = day 84, SENS-401 high 43.5 mg/BID (60 mg/day free base equivalent), overall study population, idiopathic SSNHL who received corticoids
[8] = day 84, SENS-401 high 43.5 mg/BID, subpopulation PTA at baseline ≥80 dB (idiopathic SSNHL, corticoids)
[9] = day 84, SENS-401 high 43.5 mg/BID, subpopulation PTA at baseline ≥90 dB (idiopathic SSNHL, corticoids)
[10] = day 84, SENS-401 high 43.5 mg/BID, subpopulation initial hearing loss ≥91 dB (ASHA Profound; idiopathic SSNHL, corticoids)
[11] = day 84, SENS-401 low 29 mg/BID (40 mg/day free base equivalent), ITT overall study population
[12] = day 84, SENS-401 low 29 mg/BID (40 mg/day free base equivalent), ITT overall study population, idiopathic SSNHL who received corticoids
[13] = day 84, SENS-401 low 29 mg/BID, subpopulation PTA at baseline ≥80 dB & initial frequency range ≤2000 Hz (idiopathic SSNHL, corticoids)
[14] = day 84, SENS-401 low 29 mg/BID, subpopulation initial frequency range ≤2000 Hz (of overall study population)
[15] = day 84, SENS-401 low 29 mg/BID, subpopulation initial hearing loss ≥91 dB (ASHA Profound; idiopathic SSNHL, corticoids)
[16] = day 84, SENS-401 low 29 mg/BID, subpopulation vertigo at baseline (idiopathic SSNHL, corticoids)

In the case of `CN1C(=O)COc2c(C(=O)N[C@H]3CN4CCC3CC4)cc(Cl)cc21` [SENS-401, (R)-azasetron besylate], the “ΔPTA SENS-401 vs placebo” value ([1]; day 28, SENS-401 29 mg/BID (40 mg/day free base equivalent), subpopulation PTA at baseline ≥80 dB (idiopathic SSNHL, corticoids), in dB) is reported as −15.2188, the “ΔPTA SENS-401 vs placebo” value ([1]; day 28, SENS-401 29 mg/BID (40 mg/day free base equivalent), subpopulation PTA at baseline ≥90 dB (idiopathic SSNHL, corticoids), in dB) is reported as −13.9239 and the “ΔPTA SENS-401 vs placebo” value ([1]; day 28, SENS-401 29 mg/BID, subpopulation hearing loss at baseline ≥91 dB (idiopathic SSNHL, corticoids)) is reported as −19.8922 dB. The “ΔPTA SENS-401 vs placebo” value ([1]; day 28, SENS-401 29 mg/BID, subpopulation vertigo at baseline (idiopathic SSNHL, corticoids), in dB) was −14.0995, the “ΔPTA SENS-401 vs placebo” value ([1]; day 28, SENS-401 43.5 mg/BID, subpopulation hearing loss at baseline ≥91 dB (idiopathic SSNHL, corticoids), in dB) was −14.8893 and the “Mean change in PTA from baseline” value ([1]; day 28, SENS-401 high 43.5 mg/BID oral (60 mg/day free base equivalent) 28 days, ITT overall study population, idiopathic SSNHL who received corticoids) was −41.8636 dB. For the same compound, the “Mean change in PTA from baseline” value [1, 3] was −54.4635 dB, the “ΔPTA SENS-401 vs placebo” value [1, 3] was −17.7765 dB and the “Mean change in PTA from baseline” value [1, 4] was −53.6800 dB. The “ΔPTA SENS-401 vs placebo” value [1, 4] was −23.2680 dB, the “Mean change in PTA from baseline” value [1, 5] was −42.0761 dB and the “ΔPTA SENS-401 vs placebo” value [1, 5] was −4.1236 dB. For the same compound, the “Mean change in PTA from baseline” value [1, 6] was −59.0918 dB, the “ΔPTA SENS-401 vs placebo” value [1, 6] was −21.7623 dB and the “ΔPTA SENS-401 vs placebo” value ([1]; day 84, SENS-401 29 mg/BID (40 mg/day free base equivalent), subpopulation PTA at baseline ≥80 dB (idiopathic SSNHL, corticoids), in dB) was −19.4991. The “ΔPTA SENS-401 vs placebo” value ([1]; day 84, SENS-401 29 mg/BID (40 mg/day free base equivalent), subpopulation PTA at baseline ≥90 dB (idiopathic SSNHL, corticoids), in dB) was −19.0242, the “Mean change in PTA from baseline” value [1, 7] was −46.3161 dB and the “ΔPTA SENS-401 vs placebo” value [1, 7] was −9.0984 dB. For the same compound, the “Mean change in PTA from baseline” value [1, 8] was −61.2123 dB, the “ΔPTA SENS-401 vs placebo” value [1, 8] was −25.6472 dB and the “Mean change in PTA from baseline” value [1, 9] was −57.7398 dB. For the same compound, the “ΔPTA SENS-401 vs placebo” value [1, 9] was −28.6788 dB, the “Mean change in PTA from baseline” value [1, 10] was −44.9102 dB and the “ΔPTA SENS-401 vs placebo” value [1, 10] was −26.2796 dB. For the same compound, the “Mean change in PTA from baseline” value [1, 11] was −32.4686 dB, the “ΔPTA SENS-401 vs placebo” value [1, 11] was −7.0694 dB and the “Mean change in PTA from baseline” value [1, 12] was −45.9263 dB. For the same compound, the “ΔPTA SENS-401 vs placebo” value [1, 12] was −8.7086 dB, the “Mean change in PTA from baseline” value [1, 13] was −61.7417 dB and the “ΔPTA SENS-401 vs placebo” value [1, 13] was −26.6903 dB. The “Mean change in PTA from baseline” value [1, 14] was −44.6900 dB, the “ΔPTA SENS-401 vs placebo” value [1, 14] was −11.6405 dB and the “Mean change in PTA from baseline” value [1, 15] was −46.6683 dB. For the same compound, the “ΔPTA SENS-401 vs placebo” value [1, 15] was −28.0377 dB, the “Mean change in PTA from baseline” value [1, 16] was −44.8233 dB and the “ΔPTA SENS-401 vs placebo” value [1, 16] was −21.8040 dB. The “ΔWRS SENS-401 vs placebo” value ([2]; day 28, subpopulation PTA at baseline ≥70 dB (of overall study population)) was 12.9673%, the “ΔWRS SENS-401 vs placebo” value ([2]; day 28, WRS assessed at 60 dB, subpopulation vertigo at baseline) was 35.5287% and the “ΔWRS SENS-401 vs placebo” value ([2]; day 28, WRS at 60 dB, overall study population) was 8.8241%. The “ΔWRS SENS-401 vs placebo” value ([2]; day 84, WRS assessed at 60 dB, subpopulation vertigo at baseline) was 53.1273% and the “change in WRS from baseline (effect vs placebo, in words)” value ([2]; day 84, WRS at 80 dB, subpopulation vertigo at baseline) was “significant beneficial effect”.

Reference: patent publication US20250170139A1, “AZASETRON FOR THE TREATMENT OF SUDDEN SENSORINEURAL HEARING LOSS” (SENSORION, priority 2022, published 2025)
